From patent publication US6475509B1, “Covalent conjugates of sodium channel blockers and active compounds” (The University of North Carolina at Chapel Hill, priority 1999, dated 2002)
Structures can show the parent of a compound that is named as a salt.

Columns and labels:
[1] = tested on: airway epithelial Na^+ currents; assay: Lumenal drug inhibition of airway epithelial Na+ currents, monolayers in Ussing chambers, with wash-out; type: cell-based, human or dog; conditions: for Effect of washout (3) 100% = Baseline: after maximal concentration (10^-4 M), lumenal bath exchanged three times with fresh KBR; for IC50 / Max Inhibition (%) from baseline: mucosal bath, voltage clamp; for IC50: half-log dose addition
Protocol: In the second potency assay, airway epithelial monolayers mounted were in Ussing chambers: The principal assay consisted of tests of lumenal drug inhibition of airway epithelial Na^+ currents. Cells obtained from freshly excised human or dog airways were seeded onto SNAP-well Inserts (CoStar), cultured under air-liquid (ALI) conditions in hormonally defined media. The cells were assayed for Na^+ transport activity while bathed in Krebs bicarbonate Ringer (KBR) in the Ussing chambers under voltage clamp conditions. All test drug additions were to the mucosal bath with half-log dose addition protocols (10^−11 M-[…]). All drugs were made in standard stocks of 10^−2 M drug in DMSO. Eight preparations were typically run in parallel; two preparations/run were routinely used to assay amiloride and benzamil. After the maximal concentration (10^−4 M) was administered, the lumenal bath was exchanged three times with fresh KBR solution, which was defined as the “wash-out” effect. All data from the voltage clamps were collected via a computer interface and analyzed off-line.
Dose-effect relationships for all compounds were considered and analyzed by the Prism 3.0 program. The IC50, maximal effective concentrations, and percent washout were calculated and compared to those of amiloride and benzamil as reference compounds.
The first assay is referred to an assay of reversibility. Empirically, the percent of wash-out correlates with cellular uptake. The relationship is complex because reversibility is also a function of potency. However, reversibility is a quick and simple screen. The compounds that “reverse” best in this assay referenced to benzamil were also the least absorbed in the confocal assay, as described below.

[2] = tested on: cultured airway epithelia; assay: Confocal microscopy assay of drug uptake into cultured airway epithelia; type: cell-based; conditions: compound on apical surface of airway cultures, x-z confocal microscopy; relative to amiloride
Protocol: FIG. 2 is an example of a confocal microscopy assay of drug uptake into cultured airway epithelia. In this assay, a compound (10^−4 M) is placed on the airway surface and fluorescence from the cells collected by x-z scanning confocal microscopy. The images shown on the left depict fluorescence in the cells 20 minutes after exposure to amiloride, benzamil and phenamil. Quantitation of the drug uptake is graphically illustrated on the right in terms of units of fluorescence.
The second assay utilizes confocal microscopy of amiloride congener uptake: Virtually all amiloride-like molecules fluoresce in UV range. This property of these molecules was used to directly measure cellular uptake, using a x-z confocal microscope (Leica). […] Serial x-z images were obtained with time and the magnitude of fluorescence accumulating in the cell compartment quantitated and plotted. […] Two compounds from the synthesis series described above (CF-509 and CF-519) appear to fulfil this criterion. Compounds that were equipotent or greater with amiloride were tested for wash-out as described above. However, because wash-out may reflect both potency and cell uptake, the rate of accumulation of fluorescence (indexed to the specific fluorescence/emission spectrum of each compound) in the cell compartment as a function of time was also routinely measured. […]

Row | Cellular uptake (fluorescence accumulating in the cell compartment) [2] | Compound | Effect of washout (3) 100% = Baseline [1] [%] | IC50 [1] [nM] | Max Inhibition (%) from baseline [1] [%]
1 | – | Br.Br.N=C(NCc1cccc(CNC(=N)NC(=O)c2nc(Cl)c(N)nc2N)c1)NC(=O)c1nc(Cl)c(N)nc1N [CF-512, 1,3-Bis[(3,5-diamino-6-chloropyrazinovl)guanidino]xylylene Dihydrobromide] | 60 | 197 | 92
2 | – | N/C(=N\C(=O)c1nc(Cl)c(N)nc1N)NCc1ccc(CN/C(N)=N/C(=O)c2nc(Cl)c(N)nc2N)cc1 [CF-516, 1,4-Bis[(3,5-diamino-6-chloropyrazinoyl)guanidinol]xylylene Dihydrobromide] | 65 | 330 | 90
3 | rapid | NC(=NCc1ccccc1)NC(=O)c1nc(Cl)c(N)nc1N [benzamil, 3,5-diamino-6-chloro-N-(benzylaminoaminomethylene) pyrazinecarboxamide, reference compound] | – | – | –
